System: lactating dairy cows
Test: Experiment 2: P/AI on 11 commercial dairies, Ovsynch vs. Ovsynch + second cloprostenol sodium injection
Type: in vivo, cattle
Description: An experiment was performed on 11 commercial dairies in different locations in the United States: 3 dairies in Wisconsin; 3 dairies in California; 2 dairies in New York; 1 dairy in Pennsylvania; 1 dairy in New Mexico; and 1 dairy in Texas. Although overall management was quite different for each herd, each herd used the same reproductive management protocol during this experiment. Cows were randomly assigned within herd, parity, and date to one of three treatment groups at about 40 to about 46 days in milk. One of the treatment groups, Presynch-Ovsynch with heat detection, was not considered in the present analysis. Therefore only two treatment groups were utilized for all analyses, as shown in the diagram for Experiment 2 in FIG. 2.
All animals were synchronized using a GnRH composition (about 100 mcg of gonadorelin acetate per mL, GONAbreed®, Parnell Technologies Pty Ltd, Alexandria, Australia) and a PGF2α analog composition (about 250 mcg of cloprostenol sodium per mL, estroPLAN®, Parnell Technologies Pty Ltd, Alexandria, Australia).
(§1) One treatment group began at about 47 to about 53 days in milk where the cows received a first 1 mL intramuscular injection of a gonadorelin acetate composition. At about 54 to about 60 days in milk, the cows received a first 2 mL intramuscular injection of a cloprostenol sodium composition. At about 56 to about 62 days in milk (about 56 hours after the first injection of the cloprostenol sodium composition), the cows received a second 1 mL intramuscular injection of a gonadorelin acetate composition. And at about 57 to about 63 days in milk (about 16 hours after the second injection of the gonadorelin acetate composition), the animals received AI, concluding the Ovsynch phase.
as §1, with “The other treatment group” for “One treatment group”, “a first 2 mL intramuscular injection of a cloprostenol sodium composition. At about 55 to about 61 days in milk (about 24 hours after the first injection of the cloprostenol sodium composition), the cows received a second 2 mL” for “a first 2 mL”
Pregnancy diagnosis was performed with ultrasound utilizing the normal schedule for each herd (Wisconsin and Pennsylvania herds, 31-33 days after AI; California, New York, New Mexico, and Texas herds, 37-43 days after AI). Data on all treatments, AI, and pregnancy diagnosis were recorded for each individual cow in most cases (n=1,912). In some cows, data was extrapolated from other recorded data due to missing one treatment recording (n=110) or two or more treatment recordings in a cow (n=126). Pregnancy was based on a verified pregnancy diagnosis. Non-pregnancy was based on absence of pregnancy at a pregnancy diagnosis or a rebreeding to an estrus prior to pregnancy diagnosis. Statistical analyses were performed using PROC Logistic in SAS. Treatment and parity were forced into the model and factors were kept in the model if they were significant at P<0.15.

In the case of prostaglandin F2α [PGF], the “Effect of second cloprostenol sodium injection, relative difference in P/AI” value (“Effect … relative difference in P/AI” below) (Total of 11 farms) is reported as 8.5% and the “absolute improvement in fertility due to the second PGF treatment” value (all results combined, 11 farms) is reported as ~3%.
For O=C(O)CCC/C=C\CC1C(O)CC(O)C1/C=C/C(O)COc1cccc(Cl)c1 (centres unmarked) [cloprostenol sodium], the “Effect of second cloprostenol sodium injection, Difference in P/AI” value (All Multiparous) was “+10.65% (P = 0.073)”, the “Effect of second cloprostenol sodium injection, Difference in P/AI” value (Fourth or Greater lactation) was “+0.09% (P = 0.517)” and the “P/AI, % (n/n)” value (Ovsynch (one cloprostenol sodium injection), farm CA-01) was 29.4%. The “percentage of cows pregnant per AI” value (Ovsynch (one injection), All Multiparous) was 32.01 (259/809) %, the “percentage of cows pregnant per AI” value (Ovsynch (one injection), Fourth or Greater lactation) was 30.09 (65/216) % and the “percentage of cows pregnant per AI” value (Ovsynch (one injection), Primiparous) was 37.07 (99/267) %. For the same compound, the “percentage of cows pregnant per AI” value (Ovsynch (one injection), Second and Third lactation) was 32.71 (194/593) %, the “P/AI, % (n/n)” value (Ovsynch (one injection), Total of 11 farms) was 33.3% and the “P/AI, % (n/n)” value (Ovsynch (one injection), farm CA-02) was 35.3%. For the same compound, the “P/AI, % (n/n)” value (Ovsynch (one injection), farm CA-O3) was 30.4%, the “P/AI, % (n/n)” value (Ovsynch (one injection), farm NM-04) was 35.2% and the “P/AI, % (n/n)” value (Ovsynch (one injection), farm NY-05) was 32.7%. The “P/AI, % (n/n)” value (Ovsynch (one injection), farm NY-06) was 29.4%, the “P/AI, % (n/n)” value (Ovsynch (one injection), farm PA-07) was 39.2% and the “P/AI, % (n/n)” value (Ovsynch (one injection), farm TX-08) was 37.7%. For the same compound, the “P/AI, % (n/n)” value (Ovsynch (one injection), farm WI-09) was 28.1%, the “P/AI, % (n/n)” value (Ovsynch (one injection), farm WI-10) was 35.3% and the “P/AI, % (n/n)” value (Ovsynch (one injection), farm WI-11) was 26.9%. For the same compound, the “P/AI, % (n/n)” value (Ovsynch + second cloprostenol sodium injection, farm CA-01) was 36.4%, the “percentage of cows pregnant per AI” value (Ovsynch + second injection, All Multiparous) was 35.42 (288/813) % and the “percentage of cows pregnant per AI” value (Ovsynch + second injection, Fourth or Greater lactation) was 30.36 (68/224) %. For the same compound, the “percentage of cows pregnant per AI” value (Ovsynch + second injection, Primiparous) was 38.22 (99/259) %, the “percentage of cows pregnant per AI” value (Ovsynch + second injection, Second and Third lactation) was 37.35 (220/589) % and the “P/AI, % (n/n)” value (Ovsynch + second injection, Total of 11 farms) was 36.1%. For the same compound, the “P/AI, % (n/n)” value (Ovsynch + second injection, farm CA-02) was 39.8%, the “P/AI, % (n/n)” value (Ovsynch + second injection, farm CA-O3) was 34.1% and the “P/AI, % (n/n)” value (Ovsynch + second injection, farm NM-04) was 37.7%. For the same compound, the “P/AI, % (n/n)” value (Ovsynch + second injection, farm NY-05) was 31.2%, the “P/AI, % (n/n)” value (Ovsynch + second injection, farm NY-06) was 42.0% and the “P/AI, % (n/n)” value (Ovsynch + second injection, farm PA-07) was 43.6%. For the same compound, the “P/AI, % (n/n)” value (Ovsynch + second injection, farm TX-08) was 29.8%, the “P/AI, % (n/n)” value (Ovsynch + second injection, farm WI-09) was 40.4% and the “P/AI, % (n/n)” value (Ovsynch + second injection, farm WI-10) was 37.0%. The “P/AI, % (n/n)” value (Ovsynch + second injection, farm WI-11) was 26.9%, the “Effect of second cloprostenol sodium injection, Difference in P/AI” value (Second and Third lactation) was “+14.19% (P = 0.047)” and the “Effect … relative difference in P/AI” value (Total of 11 farms) was “+8.50%”. The “Effect … relative difference in P/AI” value (farm CA-01) was “+23.64%”, the “Effect … relative difference in P/AI” value (farm CA-02) was “+12.99%” and the “Effect … relative difference in P/AI” value (farm CA-O3) was “+12.03%”. The “Effect … relative difference in P/AI” value (farm NM-04) was “+7.04%”, the “Effect … relative difference in P/AI” value (farm NY-05) was −4.47% and the “Effect … relative difference in P/AI” value (farm NY-06) was “+43.11%”. For the same compound, the “Effect … relative difference in P/AI” value (farm PA-07) was “+10.98%”, the “Effect … relative difference in P/AI” value (farm TX-08) was −20.86% and the “Effect … relative difference in P/AI” value (farm WI-09) was “+43.75%”. The “Effect … relative difference in P/AI” value (farm WI-10) was −4.94%, the “Effect … relative difference in P/AI” value (farm WI-11) was 0.0% and the “Effect of second cloprostenol sodium injection, Difference in P/AI” value (primiparous) was “+3.10% (P = 0.393)”.

From patent US20170065667A1, “METHODS FOR SYNCHRONIZATION OF ESTROUS CYCLES AND OVULATION FOR FIXED TIME ARTIFICIAL INSEMINATION IN CATTLE” (Parnell Technologies Pty Ltd., priority 2014, published 2017)
